Reference: PubChem BioAssay (NCI)
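Abbreviation: GI50, concentration required for 50% inhibition of growth. TGI marks complete inhibition of growth.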

How the values were obtained:
Experiment in all cases: inhibition of tumour cell growth, NCI panel, 384-well format
HT29 colon = tested on: HT29 colon
EKVX NSCLC = tested on: EKVX NSCLC
NCI-H322M lung = tested on: NCI-H322M lung
UACC-62 melanoma = tested on: UACC-62 melanoma
IGROV1 ovarian = tested on: IGROV1 ovarian
SK-MEL-28 melanoma = tested on: SK-MEL-28 melanoma
MCF7 breast = tested on: MCF7 breast
SK-OV-3 ovarian = tested on: SK-OV-3 ovarian
MDA-MB-435 melanoma = tested on: MDA-MB-435 melanoma
SK-MEL-2 melanoma = tested on: SK-MEL-2 melanoma
HCT-15 colon = tested on: HCT-15 colon
PC-3 prostate = tested on: PC-3 prostate
HCT-116 colon = tested on: HCT-116 colon
OVCAR-3 ovarian = tested on: OVCAR-3 ovarian
K-562 leukemia = tested on: K-562 leukemia
OVCAR-8 ovarian = tested on: OVCAR-8 ovarian
NCI-H522 lung = tested on: NCI-H522 lung
U251 glioblastoma = tested on: U251 glioblastoma
OVCAR-4 ovarian = tested on: OVCAR-4 ovarian
SNB-75 CNS = tested on: SNB-75 CNS
MDA-MB-231 breast = tested on: MDA-MB-231 breast
A549 NSCLC = tested on: A549 NSCLC
KM12 colon = tested on: KM12 colon
TK-10 renal = tested on: TK-10 renal
LOX IMVI melanoma = tested on: LOX IMVI melanoma
COLO 205 colon = tested on: COLO 205 colon
T-47D breast = tested on: T-47D breast
UACC-257 melanoma = tested on: UACC-257 melanoma
NCI-H226 lung = tested on: NCI-H226 lung
HOP-92 NSCLC = tested on: HOP-92 NSCLC
ACHN renal = tested on: ACHN renal
HCC-2998 colon = tested on: HCC-2998 colon
UO-31 renal = tested on: UO-31 renal
SW-620 colon = tested on: SW-620 colon
HS 578T breast = tested on: HS 578T breast
SNB-19 CNS = tested on: SNB-19 CNS
SN12C renal = tested on: SN12C renal
MALME-3M melanoma = tested on: MALME-3M melanoma
OVCAR-5 ovarian = tested on: OVCAR-5 ovarian
SK-MEL-5 melanoma = tested on: SK-MEL-5 melanoma
CAKI-1 renal = tested on: CAKI-1 renal
A498 renal = tested on: A498 renal
SF-268 CNS = tested on: SF-268 CNS
SF-295 CNS = tested on: SF-295 CNS

Question: For Nc1ccn(C2OC(CO)C(O)C2(F)F)c(=O)n1 (configuration not stated), which GI50 (HT29 colon) is on record?
Answer: < 11.2 nM

Question: What about the TGI (HT29 colon) of the same compound?
Answer: 3040 nM

Question: And the GI50 (EKVX NSCLC)?
Answer: 8710 nM

Question: And the TGI (EKVX NSCLC)?
Answer: > 100000 nM

Question: And the GI50 (NCI-H322M lung)?
Answer: 1090 nM

Question: And the TGI (NCI-H322M lung)?
Answer: > 100000 nM

Question: And the TGI (UACC-62 melanoma)?
Answer: 19.4 nM

Question: And the TGI (IGROV1 ovarian)?
Answer: > 100000 nM

Question: And the TGI (SK-MEL-28 melanoma)?
Answer: > 100000 nM

Question: And the TGI (MCF7 breast)?
Answer: > 100000 nM

Question: And the GI50 (SK-OV-3 ovarian)?
Answer: 31.8 nM

Question: What about the TGI (SK-OV-3 ovarian) of the same compound?
Answer: > 100000 nM

Question: And the GI50 (MDA-MB-435 melanoma)?
Answer: 301 nM

Question: What about the TGI (MDA-MB-435 melanoma) of the same compound?
Answer: > 100000 nM

Question: What about the TGI (SK-MEL-2 melanoma) of the same compound?
Answer: 15300 nM

Question: What about the TGI (HCT-15 colon) of the same compound?
Answer: > 100000 nM

Question: What about the GI50 (PC-3 prostate) of the same compound?
Answer: > 100000 nM

Question: What about the TGI (PC-3 prostate) of the same compound?
Answer: > 100000 nM

Question: What about the TGI (HCT-116 colon) of the same compound?
Answer: > 36900 nM

Question: And the TGI (OVCAR-3 ovarian)?
Answer: > 100000 nM

Question: What about the TGI (K-562 leukemia) of the same compound?
Answer: > 100000 nM

Question: And the TGI (OVCAR-8 ovarian)?
Answer: < 33.5 nM

Question: And the TGI (NCI-H522 lung)?
Answer: 5710 nM

Question: And the TGI (U251 glioblastoma)?
Answer: 25.2 nM

Question: And the GI50 (OVCAR-4 ovarian)?
Answer: > 100000 nM

Question: And the TGI (OVCAR-4 ovarian)?
Answer: > 100000 nM

Question: What about the GI50 (SNB-75 CNS) of the same compound?
Answer: < 15.5 nM

Question: And the TGI (SNB-75 CNS)?
Answer: < 30.5 nM

Question: And the GI50 (MDA-MB-231 breast)?
Answer: 95.7 nM

Question: And the TGI (A549 NSCLC)?
Answer: > 100000 nM

Question: And the GI50 (KM12 colon)?
Answer: 15.3 nM

Question: And the TGI (KM12 colon)?
Answer: > 100000 nM

Question: What about the TGI (TK-10 renal) of the same compound?
Answer: > 100000 nM

Question: What about the TGI (LOX IMVI melanoma) of the same compound?
Answer: 33 nM

Question: And the GI50 (COLO 205 colon)?
Answer: 27.7 nM

Question: And the TGI (COLO 205 colon)?
Answer: 140 nM

Question: And the GI50 (T-47D breast)?
Answer: 552 nM

Question: What about the TGI (T-47D breast) of the same compound?
Answer: > 100000 nM

Question: What about the GI50 (UACC-257 melanoma) of the same compound?
Answer: < 18.3 nM

Question: And the GI50 (NCI-H226 lung)?
Answer: < 16.2 nM

Question: What about the TGI (NCI-H226 lung) of the same compound?
Answer: 73.4 nM

Question: What about the GI50 (HOP-92 NSCLC) of the same compound?
Answer: 40.7 nM

Question: And the TGI (HOP-92 NSCLC)?
Answer: > 33100 nM

Question: And the TGI (ACHN renal)?
Answer: < 10.8 nM

Question: And the TGI (HCC-2998 colon)?
Answer: > 100000 nM

Question: And the TGI (UO-31 renal)?
Answer: < 21.3 nM

Question: What about the GI50 (SW-620 colon) of the same compound?
Answer: < 15.8 nM

Question: What about the TGI (SW-620 colon) of the same compound?
Answer: > 100000 nM

Question: What about the GI50 (HS 578T breast) of the same compound?
Answer: < 33.3 nM

Question: What about the TGI (HS 578T breast) of the same compound?
Answer: > 40800 nM

Question: What about the TGI (SNB-19 CNS) of the same compound?
Answer: 517 nM

Question: What about the GI50 (SN12C renal) of the same compound?
Answer: 18.5 nM

Question: What about the TGI (SN12C renal) of the same compound?
Answer: 64.9 nM

Question: And the TGI (MALME-3M melanoma)?
Answer: > 22100 nM

Question: What about the GI50 (OVCAR-5 ovarian) of the same compound?
Answer: 48.1 nM

Question: What about the TGI (OVCAR-5 ovarian) of the same compound?
Answer: > 100000 nM

Question: And the TGI (SK-MEL-5 melanoma)?
Answer: < 16.8 nM

Question: And the TGI (CAKI-1 renal)?
Answer: 173 nM

Question: What about the TGI (A498 renal) of the same compound?
Answer: > 100000 nM

Question: And the TGI (SF-268 CNS)?
Answer: 18.5 nM

Question: And the GI50 (SF-295 CNS)?
Answer: < 14.6 nM

Question: What about the TGI (SF-295 CNS) of the same compound?
Answer: 25.4 nM
